From paper PMC11561622, “Evaluating Antimalarial Proteasome Inhibitors for Efficacy in Babesia Blood Stage Cultures” (ACS Omega, 2024)

Assays:
B. divergens = B. divergens growth in bovine erythrocyte cultures (flow cytometry parasitemia); type: cell-based, Babesia divergens; conditions: for EC50: bovine erythrocyte cultures, 48 h, dose-response
Protocol: Blood stage cultures of B. divergens (strain 2210A G2) were maintained in erythrocytes from defibrinated bovine blood (BioTrading Benelux B.V.). Parasites were multiplied in in vitro erythrocyte cultures containing RPMI 1640 medium (Lonza, cat. no. BE12-115F) supplemented with 50 μg/mL gentamicin (Lonza), 0.25 μg/mL amphotericin B (Sigma-Aldrich), and 20% (v/v) heat-inactivated fetal calf serum (Lonza, inactivation at 56 °C for 30 min before use). Cells were cultured at 37 °C in a 5% CO2 environment. B. microti (Franca) (ATTC PRA-99) was maintained by continuous intraperitoneal passages in BALB/c female mice (Charles River Laboratories). All laboratory animals were treated in accordance with the Animal Protection Law of the Czech Republic No. 246/1992 Sb., ethics approval no. 25/2018. The study was approved by the Institute of Parasitology, Biology Centre of the Czech Academy of Sciences and the Central Committee for the Animal Welfare, Czech Republic (protocol no. 1/2015).
To evaluate the effect of inhibitors on B. divergens replication, cultures (5% hematocrit) containing 2% parasitemia were cultivated in media. Single concentration screens were first performed using 600 nM of compound and then dose–response assays (5400 to 2.34 nM) were subsequently performed for compounds of interest. Assays were performed twice in triplicate wells in a 96-well tissue culture plate format (TPP, Switzerland) and media containing inhibitors were replaced at 12 h intervals for a total of 48 h. DMSO diluted in medium (0.1%) served as a vehicle control. The parasitemia of intraerythrocytic B. divergens was determined using flow cytometry following the staining of nucleic acids as described previously.[31] Briefly, infected red blood cells were fixed in a solution of 4% paraformaldehyde and 0.025% glutaraldehyde in PBS for 30 min at room temperature (RT). […] Parasitemia was analyzed using a FACS CantoII flow cytometer and Diva software provided by BD Biosciences. The EC50 of compounds in the dose–response inhibition was determined in GraphPad Prism 10 using nonlinear regression.

[1] = system: endogenous polyubiquitinated proteins in B. divergens; assay: Western blot of polyubiquitinated proteins in treated B. divergens cultures; type: cell-based, Babesia divergens; conditions: 200 nM, 24 h, anti-Ubiquitin K48 western blot, vs 0.1% DMSO
Protocol: To assess the on-target effect of proteasome inhibition, protein lysates of B. divergens isolated from bovine erythrocyte cultures were evaluated for the accumulation of polyubiquitinated proteins. The B. divergens cultures underwent two 12 h treatments (totaling 24 h) with 200 nM of the inhibitor in culture medium. Parasites were released from RBCs and protein lysates were prepared as described above. The resulting samples were then centrifuged at 15,000g for 15 min at 4 °C and protein concentrations of the resulting supernatant were determined using Bradford assay.[29] Samples were prepared for SDS-PAGE in reducing Laemmli buffer supplemented with β-mercaptoethanol. Ten micrograms of protein was applied per lane and proteins were separated on gradient (4–15%) Criterion TGX Stain-Free Precast gels (BioRad) in Tris-Glycine-SDS running buffer (25 mM Tris, 192 mM glycine, and 0.1% (w/vol) SDS, pH 8.3) and visualized using TGX stain-free chemistry (BioRad). […] After washing (3 × 10 min) in PBS-T, signals were detected using Clarity Max Western ECL substrate (BioRad), visualized using a ChemiDoc MP imager, analyzed, and adjusted using the ImageLab freeware (BioRad).

[2] = system: catalytic subunits of Bd20S; assay: Activity-based probe labeling (Me4BodipyFL-Ahx3Leu3VS) of Bd20S catalytic subunits; type: binding, Babesia divergens; conditions: lysates from CFZ- and CPB-treated cells, vs vehicle

CCCCCC(=O)N[C@H](C(=O)N[C@@H](CCS(C)(=O)=O)C(=O)N[C@@H](CC(C)C)C(=O)[C@@]1(C)CO1)C(C)C [carmaphycin B]
Selectivity index (B. divergens over HepG2 cells) (B. divergens; HepG2 EC50 / B. divergens EC50): 0.21 | EC50 (B. divergens): 59.5 ± 12.8 nM | EC50 (B. divergens; listed as CPB): 59.5 ± 12.8 nM | accumulation of endogenous polyubiquitinated proteins [1]: marked accumulation | labeling of catalytic subunits by activity-based probe [2]: significantly reduced
